Tests used:
Beas-2B cells [1] = assay: Cell-surface HS / CS after enzyme treatment (anti-HS or anti-CS antibody, flow cytometry); assay type: cell-based; details: 5 U/ml heparinase I or 2.4 U/ml heparinase III, 2 h, anti-HS monoclonal antibody, untreated cells 100%, n = 3
Protocol: Figure 3 HS-dependent ECP^32–-41 internalization. […] (B) Samples of wild-type and mutant CHO cells were each incubated with 5 µM FITC-ECP^32–41 at 37°C for 1 h and then subjected to flow cytometry. (C) Samples of wild-type and mutant CHO cells were incubated with 5 µM FITC-ECP^32–41 at 37°C for 1 h., then washed twice with 1 ml PBS, and fixed for CLSM. Nuclei were stained with Hoechst 34850. Scale bar: 20 µm. (D) Beas-2B cells were treated with heparinase I, heparinase III, or chondroitinase ABC for 2 h prior to incubation with 5 µM FITC-ECP^32–41 at 37°C for 1 h. […] Untreated cells served as the controls. The fluorescence of cells treated with FITC-ECP^32–41 was set to 100%. […] (E) Beas-2B cells were treated with heparinase I, heparinase III, or chondroitinase ABC for 2 h. […] Untreated cells served as the control. The fluorescence of the untreated cells was set to 100%.
To verify that selective cell-surface polysaccharides had been enzymatically removed, the treated cells were subsequently incubated with anti-HS or anti-CS monoclonal antibodies. As expected, heparinase I and heparinase III had decreased the amount of HS on Beas-2B cell surfaces by 48% and 61%, respectively (Figure 3E, left panel), and chondroitinase ABC removed 72% of the cell-surface CS (Figure 3E, right panel). The HS that remained on Beas-2B cell surface accounted for the observed ECP^32–41 internalization into heparinase-treated cells. Conversely, even though 70% of the initial cell-surface CS had been removed, ECP^32–41 internalization was hardly affected–thus as concluded above, HS, rather than CS, is responsible for ECP^32–41 internalization.
Beas-2B cells (3.0×10^5/well) were incubated with RPMI 1640 medium overnight in six-well plates and then treated with 5 U/ml of heparinase I, 2.4 U/ml of heparinase III, or 10 U/ml of chondroitinase ABC (Sigma-Aldrich) at 37°C for 2 h. After a PBS wash, the cells were incubated with FITC-ECP^32–41 and assayed for internalization of the peptide by flow cytometry as described above.

Beas-2B cells [2] = assay: Cell viability assay (MTT); details: Beas-2B, 100 µM peptide, 37°C, 24 h; n = 3
Protocol: Beas-2B cells were grown in serum-free medium in the presence of ECP^32–41 at indicated concentrations for 24 h. (A) The cytotoxic effect of ECP^32–41 was measured by MTT assay. The cell viability of untreated cells was set to 100%. Cells treated with 0.1% Triton X-100 was used as a positive control. (B) The membrane disruption by ECP^32–41 was measured by LDH assay. LDH released from cells lysed with 0.1% Triton X-100 in medium was defined as 100% leakage and LDH released from untreated cells was set as 0% leakage.
Beas-2B cells were incubated with 10 µM eGFP or eGFP-ECP^32–41 at 37°C for 1 h. The cells were then washed with 500 µl PBS, trypsinized at 37°C for 15 min, suspended in 500 µl PBS, and subjected to flow cytometry. (B) Beas-2B cells were treated with the indicated concentrations of TAT^47–57, ECP^32–41, KLA, KLA-TAT^47–57 or KLA-ECP^32–41 at 37°C for 24 h, and their cytotoxic effects were determined by the MTT assay. Cytotoxic effects of (C) KLA-TAT^47–57 and (D) KLA-ECP^32–41, at the indicated concentrations, on Beas-2B, A549, Caco-2, and AGS cells were assessed by the MTT assay after incubation at 37°C for 24 h. The cell viability untreated cells was set to 100%. The result is expressed as the mean ± S.D., n = 3.
The effects of the peptides on cell viability were determined colourimetrically using 3-(4,5-dimethylthiazol-2-yl)-2,5-diphenyltetrazolium bromide (MTT) (US Biological). Cells (1.0×10^4/well) were seeded into the wells of 96-well plates and incubated overnight. Cell samples were then exposed to different concentrations of TAT^47–57, ECP^32–41, KLA, KLA-TAT^47–57 or KLA-ECP^32–41. After 24 h, 100 µl of 0.5 mg/ml MTT in medium was added into each well, and the cells were incubated at 37°C for 3 h. The incubation medium was removed, and the remaining purple crystal formazan was dissolved in dimethylsulphoxide. Cells treated with 0.1% Triton X-100 was used as a positive control for cell viability. A540 values were measured using a multiwall plate reader (Molecular Devices).

Compound | decrease of the amount of HS on Beas-2B cell surfaces (Beas-2B cells [1]) | cell viability (MTT) at 100 µM (Beas-2B cells [2])
heparinase I | 48% | 
heparinase III | 61% | 
N=C(N)NCCC[C@H](NC(=O)CN)C(=O)N[C@@H](CCCCN)C(=O)N[C@@H](CCCCN)C(=O)N[C@@H](CCCNC(=N)N)C(=O)N[C@@H](CCCNC(=N)N)C(=O)N[C@@H](CCC(N)=O)C(=O)N[C@@H](CCCNC(=N)N)C(=O)N[C@@H](CCCNC(=N)N)C(=O)N[C@@H](CCCNC(=N)N)C(=O)N1CCC[C@H]1C(=O)O [TAT^47–57] |  | neither peptide affected cell viability

— article PMC3587609, “A Novel Cell-Penetrating Peptide Derived from Human Eosinophil Cationic Protein” (PLoS ONE, 2013)
